Measurements reported in US11458153B2, “Drug delivery composition comprising a self-assembled gelator” (The Brigham and Women's Hospital, Inc., priority 2008, dated 2022).
Entries after “also recorded” stand apart in the source; their conditions may differ.

How the values were obtained:
[1] = system: mesenchymal stem cells (MSCs); assay: MSC osteogenic differentiation, alkaline phosphatase staining; format: cell-based, human; conditions: 250 μM, 23 days
Procedure: (§1) Unlike typical fibroblast cell lines used for toxicity screening, cultured mesenchymal stem cells are highly sensitive to the presence of soluble factors and can often loose their capacity for multi-lineage differentiation or differentiate into non-desired lineages depending on the culture conditions. To examine the impact of the acetaminophen amphiphilic prodrugs on multi-lineage differentiation of MSCs, cells were treated with adipogenic and osteogenic induction media in presence of amphiphiles followed by respective colorimetric histological staining.
Osteogenic Differentiation. MSCs were seeded in the wells of 24 well plates, and were culture in MSC expansion media until they reach 90% confluence (note: in control samples there was no amphiphile present, whereas in experimental samples 250 μM of Apn-based amphiphile was present). Osteogenic differentiation was induced by culturing the cells for 23 days in osteogenic induction media (from Lonza—MSCs Osteogenic Single Quote kit) containing dexamethasone, β-glycerophosphate, L-ascorbic acid-2-phosphate, and α-MEM. The media in both groups was changed every 3 days (note: each time while changing the media, 250 μM of Apn-based amphiphiles were added to maintain constant concentration). Osteogenesis was evaluated by cell membrane associated alkaline phosphatase activity. Alkaline phosphatase activity was examined after 23 days by carefully aspirating the media and washing the cells with PBS. The cells were fixed with 3.7% formaldehyde solution for 15 min at room temperature followed by rinsing with distilled water. 0.06% Red Violet LB salt solution in Tris HCl was added with distilled water containing DMF and Naphthol AS MX-PO4. The plates were incubated for 45 minutes at room temperature and then the wells were rinsed 3 times with distilled water and imaged under with inverted phase contrast microscope.

[2] = system: mesenchymal stem cells (MSCs); assay: MSC adipogenic differentiation, Oil Red O staining; format: cell-based, human; conditions: 250 μM, 23 days of induction
Procedure: as §1
Adipogenic Differentiation. MSCs were seeded in the wells of 24 well plates, and were culture in MSC expansion media until they reach 90% confluence (note: in control samples there was no amphiphile present, whereas in experimental samples 250 μM of Apn-based amphiphile was present). Adipogenic differentiation was induced by culturing the cells for 23 days in adipogenic induction media (from Lonza—MSCs Adipogenic Single Quote kit containing h-Insulin (recombinant), L-Glutamine, Dexamethasone, Indomethacin, IBMX (3-isobuty-1-methyl-xanthine), Pen/Strep) and adipogenic maintenance media (from Lonza—MSCs Adipogenic Single Quote kit containing h-Insulin (recombinant), L-Glutamine, Pen/Strep). […] Adipogenesis was evaluated by Oil Red O staining. Following aspiration of the media, cells were washed once with PBS, and fixed in PBS with 3.7% formaldehyde for 30 min at room temperature. Following fixation cells were rinsed with distilled water for a few minutes, and incubated with isopropanol containing an Oil Red O working solution (prepared by diluting 30 mL of 0.5% isopropanol/Oil Red O solution with 20 mL of distilled water). After 45 minutes culture well were rinsed twice with distilled water and 1 mL of hematoxylin was added to each well for 1 minute followed by aspiration and washing with distilled water. The wells were viewed using an inverted phase contrast microscope.

CC(=O)Nc1ccc(OC(=O)CCCCCCC(=O)O)cc1 [Apn-7-COOH]
osteogenic differentiation, alkaline phosphatase (ALP) staining [1]: robust capacity; also recorded: equally stained for ALP
adipogenic differentiation, Oil Red O (ORO) staining [2]: robust capacity; also recorded: equally stained for ORO
